Experimental findings from patent publication US20020006906A1, “Novel active agent, composition containing it and use in the cosmetic, dermocosmetic, dermopharmaceutical or pharmaceutical field or on woven or nonwoven supports” (SOCIETE D'EXPLOITATION DE PRODUITS POUR LES, priority 2000, published 2002) are described below.

For one assay, the system named is superoxide anion. Kind of assay: Anti-free-radical test: xanthine/xanthine oxidase, reduction of cytochrome C (550 nm). The settings on record: 0.46% (as active substance); for % anti-free radical inhibition: 25° C. The format is biochemical. The method, then:
The determination of the anti-free-radical effect is based on the capacity which the molecule to be studied has to inhibit or reduce the rate of reduction of cytochrome C, when it is added to the reaction medium. The superoxide anion is formed by the action of xanthine oxidase on xanthine. It induces, in the absence of a molecule capable of capturing it, the reduction of cytochrome C. The appearance of reduced cytochrome C is monitored in a spectrophotometer at 550 nm, in the presence (Trial) and in the absence (Control) of anti-free-radical molecules.
The reaction is carried out in a spectrophotometer thermostated at 25° C. and provided with a sample changer. All the kinetics are determined at least three times; the mean and the standard deviation are calculated for the three values obtained. A percentage inhibition of the rate of appearance of the coloured product (corresponding to the quantity of free superoxide anion) is therefore calculated for each active agent tested. The calculation is performed relative to the rate of appearance of the coloured product in the control (without active agent). The percentage inhibition of the appearance of the coloured product by the active agent therefore corresponds to the percentage inhibition of the superoxide anion.

The subject of assay [1] is normal human keratinocytes. Kind of assay: Cell division: fluorimetric DNA assay in keratinocytes under thermal stress. It counts as cell-based. The method, then:
The effect of the active agents on cell division is measured by a fluorimetric assay of the content of DNA in normal human keratinocytes subjected to a high thermal stress (20 minutes at 50° C.). The quantity of DNA present in the cells determines their capacity to divide. The cells are used at 60% confluence. They are incubated for 24 hours in the presence of the active agents. Cell division is determined by assaying the quantity of DNA present per well.
Four samples A, B, C and D, of a culture normal human keratinocytes, are subjected to the following respective treatments:
Sample A: cells not treated and left at room temperature.
Sample B: cells not treated and heated at 50° C. for 20 minutes.
Sample D: cells left incubated for 24 hours with panthenol (concentration: 12.5×10^−6% by weight of active substance) and heated at 50° C. for 20 minutes.
The DNA in each of the samples is then assayed.

Each structure is given as a SMILES string.

For the molecule `O=C1O[C@H]([C@@H](O)CO)C(O)=C1O` [Vitamin C, ascorbic acid], the “% anti-free radical inhibition” value in the assay with superoxide anion amounted to 94%.
Consider `CC(C)(CO)C(O)C(=O)NCCCO` (stereo not drawn) [Panthenol, 2,4-dihydroxy-N-(3-hydroxypropyl)-3,3-dimethylbutanamide], for which, in the assay on superoxide anion, the “Anti-free radical activity (in words)” value is reported as “nonexistent” and the “% anti-free radical inhibition” value turned out to be 0%. For the same molecule, the “Relative level of cell division (base 100: batch B)” value in assay [1] (Sample D: 12.5×10^−6% active substance, 24 hours, 50° C. for 20 minutes) was 116.2. The “Cell division (in μg/well), DNA per well” value in assay [1] (Sample D: 24 hours with 12.5×10^−6% by weight of active substance, then 50° C. for 20 minutes (heated untreated sample B 3.7)) is 4.3 μg/well. Moreover, the “Effect on cell division under heat (in words)” value in assay [1] (keratinocytes heated at 50° C. for 20 minutes) is recorded as “only compensates for these effects”.
